According to ChEMBL document CHEMBL1201862, “PubChem BioAssay data set” (2004):
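Test compounds were applied to cells in 96-well plates for 48 hours at 5 doses. GI50: concentration for 50% inhibition of growth.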 The source made the active and inactive calls. Cut-off read from the data, not from the text of the source: active = GI50 up to about 1.1 µM and inactive = higher.

Experiments:
Assay in all cases: NCI anticancer screen, dose series, 48 h
CCRF-CEM = tested on: CCRF-CEM
SK-MEL-5 = tested on: SK-MEL-5
NCI-H226 = tested on: NCI-H226
HCT-116 = tested on: HCT-116
SF-539 = tested on: SF-539
UACC-257 = tested on: UACC-257
HT-29 = tested on: HT-29
SN12C = tested on: SN12C
SK-MEL-28 = tested on: SK-MEL-28
OVCAR-8 = tested on: OVCAR-8
SNB-19 = tested on: SNB-19
SK-MEL-2 = tested on: SK-MEL-2
KM12 = tested on: KM12
OVCAR-3 = tested on: OVCAR-3
NCI/ADR-RES = tested on: NCI/ADR-RES
MCF7 = tested on: MCF7
MDA-MB-435 = tested on: MDA-MB-435
T47D = tested on: T47D

Measured: GI50

CN(C)CCNC(=O)c1ccccc1Nc1c(Cl)cccc1Cl
inactive: CCRF-CEM 12.7 µM | SK-MEL-5 2.89 µM | NCI-H226 11.5 µM | HCT-116 7.93 µM | SF-539 13.1 µM | UACC-257 5.75 µM | HT-29 6.75 µM | SN12C 15.1 µM | SK-MEL-28 14.8 µM | OVCAR-8 14.1 µM | SNB-19 16.1 µM

COc1ccc(C(C#N)NNC(=O)Cc2ccccc2)cc1OC (centres undefined)
inactive: CCRF-CEM > 100 µM | SK-MEL-5 > 100 µM | SK-MEL-2 > 100 µM | NCI-H226 > 100 µM | HCT-116 > 100 µM | SF-539 > 100 µM | UACC-257 > 100 µM | HT-29 > 100 µM | SN12C > 100 µM | SK-MEL-28 > 100 µM | OVCAR-8 > 100 µM | KM12 > 100 µM

C=CCN(N=O)C(=O)N(CCCC(NC(C)=O)C(=O)NCc1ccccc1)Cc1ccccc1 (centres undefined)
inactive: CCRF-CEM 28.2 µM | SK-MEL-5 31.1 µM | SK-MEL-2 > 100 µM | SF-539 37.2 µM | UACC-257 57.7 µM | HT-29 24.2 µM | OVCAR-3 31 µM | SN12C 67.6 µM | SK-MEL-28 79.4 µM | OVCAR-8 67.3 µM | SNB-19 82.6 µM | KM12 42.4 µM

COc1ccccc1NC(=O)CC(=O)NNCC(=O)Nc1nnc(-c2ccccc2)o1
inactive: SK-MEL-5 > 100 µM | SK-MEL-2 > 100 µM | NCI-H226 > 100 µM | HCT-116 > 100 µM | SF-539 > 100 µM | UACC-257 > 100 µM | HT-29 > 100 µM | OVCAR-3 > 100 µM | SN12C > 100 µM | SK-MEL-28 > 100 µM | OVCAR-8 > 100 µM | SNB-19 > 100 µM | KM12 > 100 µM

C=CCN(N=O)C(=O)N(CCC)CCCC(NC(C)=O)C(=O)NCc1ccccc1 (centres undefined)
inactive: CCRF-CEM > 100 µM | SK-MEL-5 > 100 µM | SK-MEL-2 > 100 µM | SF-539 > 100 µM | UACC-257 > 100 µM | HT-29 > 100 µM | OVCAR-3 > 100 µM | SN12C > 100 µM | SK-MEL-28 > 100 µM | OVCAR-8 > 100 µM | SNB-19 > 100 µM | KM12 > 100 µM

Cc1ccccc1NC(=O)Cc1nc2ccccc2s1
inactive: CCRF-CEM 9.51 µM | SK-MEL-5 51.2 µM | SK-MEL-2 16 µM | NCI-H226 18.9 µM | HCT-116 16.5 µM | SF-539 18.9 µM | UACC-257 17.1 µM | HT-29 19.6 µM | OVCAR-3 18 µM | SN12C 16.6 µM | SK-MEL-28 17.7 µM | OVCAR-8 17.7 µM | SNB-19 29.7 µM | KM12 16.7 µM

c1ccc2c(c1)Sc1ccccc1N2C1CN2CCC1CC2 (centres undefined)
inactive: CCRF-CEM 16.5 µM | SK-MEL-5 15.6 µM | SK-MEL-2 4.46 µM | NCI-H226 4.09 µM | HCT-116 15.5 µM | SF-539 14 µM | UACC-257 15.5 µM | HT-29 17.3 µM | OVCAR-3 15.8 µM | SN12C 14.2 µM | SK-MEL-28 15.8 µM | OVCAR-8 16.4 µM | SNB-19 18.8 µM | KM12 15.2 µM

Cc1cc(Cl)ccc1NC(=O)CCCC(=O)C1CCC/C1=N\NC(=O)CC#N (centres undefined)
inactive: CCRF-CEM > 100 µM | SK-MEL-5 > 100 µM | SK-MEL-2 > 100 µM | NCI-H226 > 100 µM | HCT-116 > 100 µM | SF-539 > 100 µM | UACC-257 > 100 µM | HT-29 > 100 µM | OVCAR-3 > 100 µM | SN12C > 100 µM | SK-MEL-28 > 100 µM | OVCAR-8 > 100 µM | SNB-19 > 100 µM | KM12 > 100 µM

Nc1ccc(C(=O)N/C(=C\c2cccc([N+](=O)[O-])c2)c2nc3cc(Cl)ccc3[nH]2)cc1
inactive: CCRF-CEM > 100 µM | SK-MEL-5 > 100 µM | SK-MEL-2 > 100 µM | SF-539 > 100 µM | HT-29 > 100 µM | OVCAR-3 > 100 µM | SN12C > 100 µM | SK-MEL-28 > 100 µM | OVCAR-8 > 100 µM | SNB-19 > 100 µM | KM12 > 100 µM

C[C@]12CCC[C@H](OC=O)C1(O)C[C@H](C(=O)O)CC2 (some centres undefined)
inactive: CCRF-CEM > 100 µM | SK-MEL-5 > 100 µM | SK-MEL-2 > 100 µM | NCI-H226 > 100 µM | HCT-116 > 100 µM | SF-539 > 100 µM | UACC-257 > 100 µM | HT-29 > 100 µM | OVCAR-3 > 100 µM | SN12C > 100 µM | SK-MEL-28 > 100 µM | OVCAR-8 > 100 µM | SNB-19 > 100 µM | KM12 > 100 µM

CCOC(=O)C(=O)Nc1c(C)cccc1C(C)C
inactive: CCRF-CEM > 100 µM | SK-MEL-5 > 100 µM | SK-MEL-2 > 100 µM | NCI-H226 > 100 µM | HCT-116 > 100 µM | SF-539 > 100 µM | UACC-257 > 100 µM | HT-29 > 100 µM | OVCAR-3 > 100 µM | SN12C > 100 µM | SK-MEL-28 > 100 µM | OVCAR-8 > 100 µM | SNB-19 > 100 µM | KM12 > 100 µM

CSc1nc(-c2ccccc2)nc(N2CCOCC2)[s+]1
inactive: CCRF-CEM 22.3 µM | SK-MEL-5 > 100 µM | SK-MEL-2 > 100 µM | NCI-H226 > 100 µM | HCT-116 > 100 µM | SF-539 > 100 µM | HT-29 53.1 µM | OVCAR-3 > 100 µM | SN12C > 100 µM | SK-MEL-28 > 100 µM | OVCAR-8 > 100 µM | SNB-19 > 100 µM | KM12 > 100 µM

CCOC(=O)c1c(N=P(c2ccccc2)(c2ccccc2)c2ccccc2)nnc(-c2ccccc2)c1-c1ccccc1
inactive: CCRF-CEM > 100 µM | SK-MEL-5 > 100 µM | NCI/ADR-RES > 100 µM | MCF7 > 100 µM | SK-MEL-2 43.8 µM | NCI-H226 > 100 µM | HCT-116 > 100 µM | SF-539 > 100 µM | UACC-257 > 100 µM | HT-29 > 100 µM | OVCAR-3 > 100 µM | SN12C > 100 µM | SK-MEL-28 > 100 µM | OVCAR-8 > 100 µM | MDA-MB-435 > 100 µM | SNB-19 71.3 µM | KM12 > 100 µM | T47D > 100 µM

O=C(/C=C1/NC(=O)CS1)Nc1ccccc1
inactive: CCRF-CEM > 100 µM | SK-MEL-5 > 100 µM | SK-MEL-2 89.5 µM | NCI-H226 > 100 µM | HCT-116 > 100 µM | SF-539 > 100 µM | HT-29 > 100 µM | OVCAR-3 > 100 µM | SN12C > 100 µM | SK-MEL-28 > 100 µM | OVCAR-8 > 100 µM | SNB-19 > 100 µM | KM12 > 100 µM

CCOc1ccc(/N=C/c2cccc3cccnc23)cc1
inactive: CCRF-CEM 62.5 µM | SK-MEL-5 > 100 µM | SK-MEL-2 > 100 µM | NCI-H226 > 100 µM | HCT-116 43.8 µM | SF-539 > 100 µM | UACC-257 > 100 µM | HT-29 > 100 µM | OVCAR-3 > 100 µM | SN12C > 100 µM | SK-MEL-28 > 100 µM | OVCAR-8 > 100 µM | SNB-19 > 100 µM | KM12 39.8 µM

CCN(CC)c1ccc(/N=C2/C=CC(=C(C#N)C#N)c3ccccc32)c(C)c1
inactive: CCRF-CEM 1.18 µM | SK-MEL-5 1.58 µM | SK-MEL-2 2.08 µM | HCT-116 1.95 µM | UACC-257 2.16 µM | HT-29 3.24 µM | OVCAR-3 1.86 µM | SN12C 2.53 µM | SK-MEL-28 1.64 µM | OVCAR-8 2.23 µM | SNB-19 3.78 µM

CC(C)N1C(C)[C@@H](c2ccccc2)O[P@]1(=O)CC1=CCCCC1 (some centres undefined)
inactive: CCRF-CEM 35.6 µM | SK-MEL-5 45.2 µM | SK-MEL-2 > 100 µM | NCI-H226 > 100 µM | HCT-116 > 100 µM | SF-539 > 100 µM | UACC-257 68.1 µM | HT-29 > 100 µM | OVCAR-3 62.7 µM | SN12C > 100 µM | SK-MEL-28 > 100 µM | OVCAR-8 > 100 µM | SNB-19 > 100 µM | KM12 > 100 µM

Cc1ccc(S(=O)(=O)SCc2ccccc2)cc1
inactive: CCRF-CEM 2.33 µM | SK-MEL-5 25.6 µM | SK-MEL-2 27 µM | NCI-H226 21 µM | HCT-116 7.6 µM | SF-539 23.4 µM | UACC-257 31.9 µM | HT-29 22.9 µM | OVCAR-3 20.8 µM | SN12C 20.8 µM | SK-MEL-28 50 µM | OVCAR-8 15.3 µM | SNB-19 29.7 µM | KM12 25.7 µM

CC(=O)NC(ON1C(=O)COc2ccccc21)C(Cl)(Cl)Cl (centres undefined)
inactive: SK-MEL-2 > 100 µM | NCI-H226 33.4 µM | HCT-116 > 100 µM | SF-539 > 100 µM | UACC-257 > 100 µM | HT-29 > 100 µM | OVCAR-3 > 100 µM | SN12C > 100 µM | SK-MEL-28 > 100 µM | OVCAR-8 > 100 µM | SNB-19 > 100 µM | KM12 > 100 µM

COC(=O)/C(=N\NC(N)=O)C(C(=O)C=C(C)C)C(=O)C(=O)Nc1ccc(Cl)c(Cl)c1 (centres undefined)
inactive: CCRF-CEM > 100 µM | SK-MEL-5 > 100 µM | SK-MEL-2 > 100 µM | NCI-H226 > 100 µM | HCT-116 > 100 µM | SF-539 > 100 µM | UACC-257 > 100 µM | HT-29 > 100 µM | OVCAR-3 > 100 µM | SN12C > 100 µM | SK-MEL-28 > 100 µM | OVCAR-8 > 100 µM | SNB-19 > 100 µM | KM12 > 100 µM
